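Interpolation was linear, between the two tested concentrations surrounding the appropriate level; five concentrations were tested over 48 hours in 96-well plates. At the TGI there is no net growth.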
Key:
Experiment in all cases: inhibition of tumour cell growth, NCI panel, 48 h
[1] = tested on: DMS 273 small cell lung
[2] = tested on: DMS 114 small cell lung
[3] = tested on: SNB-78 CNS
[4] = tested on: HL-60(TB) leukemia
[5] = tested on: K-562 leukemia
[6] = tested on: KM20L2 colon
[7] = tested on: HOP-18 NSCLC
[8] = tested on: M19-MEL melanoma
[9] = tested on: RPMI-8226 leukemia
[10] = tested on: LXFL 529 NSCLC
[11] = tested on: DLD-1 colon
[12] = tested on: TK-10 renal
[13] = tested on: XF 498 CNS
[14] = tested on: RXF-631 renal
[15] = tested on: PC-3 prostate

For `COc1cc(CCc2cccnc2)cc(OC)c1OC`, the TGI [1] was > 100 µM, the TGI [2] was > 100 µM and the TGI [3] was > 100 µM. The TGI [4] was > 100 µM, the TGI [5] was > 100 µM and the TGI [6] was > 100 µM. The TGI [7] was > 100 µM, the TGI [8] was > 100 µM and the TGI [9] was > 100 µM. The TGI [10] was > 100 µM, the TGI [11] was > 100 µM and the TGI [12] was > 100 µM.

For `CN(C)CC(/C(Cc1ccccc1)=N\NC(=O)C[n+]1ccccc1)c1ccccc1` (stereo unspecified), the TGI [1] was > 100 µM, the TGI [13] was > 100 µM and the TGI [2] was > 100 µM. For the same compound, the TGI [3] was > 100 µM, the TGI [4] was > 100 µM and the TGI [5] was > 100 µM. The TGI [14] was > 100 µM, the TGI [6] was > 100 µM and the TGI [7] was > 100 µM. The TGI [8] was > 100 µM, the TGI [10] was > 100 µM and the TGI [12] was > 100 µM.

In the case of `[O-]/[N+](=C\c1ccccc1)[C@H](COCc1ccccc1)c1ccccc1`, the TGI [1] was > 100 µM, the TGI [13] was > 100 µM and the TGI [2] was > 100 µM. For the same compound, the TGI [3] was > 100 µM, the TGI [4] was 62.1 µM and the TGI [5] was > 100 µM. The TGI [14] was > 100 µM, the TGI [6] was > 100 µM and the TGI [7] was 90.4 µM. For the same compound, the TGI [8] was > 100 µM, the TGI [9] was > 100 µM and the TGI [10] was > 100 µM. The TGI [11] was > 100 µM and the TGI [12] was > 100 µM.

For `C=C1C(=O)OC2/C=C(\C)C(OC(C)=O)C3OC3C(C)(O)CC(OC(=O)/C(C)=C/C)C12` (stereo unspecified), the TGI [1] was 60 µM, the TGI [13] was 18.2 µM and the TGI [2] was 20 µM. It also gave a TGI [3] of 30.5 µM, a TGI [4] of 5.81 µM and a TGI [5] of 18.9 µM. For the same compound, the TGI [6] was 15.2 µM, the TGI [7] was 23.5 µM and the TGI [8] was 22.3 µM. It also gave a TGI [9] of 28.2 µM, a TGI [10] of 10.1 µM and a TGI [12] of 24.6 µM.

For `OCCOc1ccc(-c2cc(-c3ccccn3)nc(-c3ccccn3)c2)cc1`, the TGI [2] was 1.93 µM, the TGI [3] was > 100 µM and the TGI [4] was 0.494 µM. The TGI [5] was 11.4 µM, the TGI [14] was > 100 µM and the TGI [6] was > 41.8 µM. For the same compound, the TGI [15] was > 100 µM, the TGI [7] was 5.59 µM and the TGI [8] was 0.593 µM. For the same compound, the TGI [9] was > 96.7 µM, the TGI [10] was > 100 µM and the TGI [11] was > 100 µM. For the same compound, the TGI [12] was > 100 µM.

With `CC12CC3C(CC1SCC(=O)O2)C3(C)C` (stereo unspecified) the TGI [1] was > 100 µM, the TGI [13] was > 100 µM and the TGI [2] was > 100 µM. The TGI [3] was > 100 µM, the TGI [4] was > 100 µM and the TGI [5] was > 100 µM. For the same compound, the TGI [7] was > 100 µM, the TGI [8] was > 100 µM and the TGI [9] was > 100 µM. The TGI [10] was > 100 µM, the TGI [11] was > 100 µM and the TGI [12] was > 100 µM.

`O=C(Nc1c(O)[nH]c(=S)[nH]c1=O)c1ccccn1` was tested, and the TGI [2] was > 100 µM, the TGI [3] was > 100 µM and the TGI [4] was > 100 µM. The TGI [5] was > 100 µM, the TGI [14] was > 100 µM and the TGI [6] was > 100 µM. For the same compound, the TGI [7] was > 100 µM, the TGI [8] was > 100 µM and the TGI [9] was > 100 µM. For the same compound, the TGI [10] was > 100 µM, the TGI [11] was > 100 µM and the TGI [12] was > 100 µM.

For `O=C1c2ccccc2C2(O)Nc3cc(O)ccc3C12O` (stereo unspecified), the TGI [1] was > 100 µM, the TGI [2] was > 100 µM and the TGI [3] was > 100 µM. For the same compound, the TGI [4] was > 100 µM, the TGI [5] was > 100 µM and the TGI [14] was > 100 µM. For the same compound, the TGI [6] was > 100 µM, the TGI [7] was > 100 µM and the TGI [9] was > 100 µM. For the same compound, the TGI [10] was > 100 µM, the TGI [11] was > 100 µM and the TGI [12] was > 100 µM.

`S=c1sc2c(Cl)ncnc2n1-c1ccccc1` was tested, and the TGI [1] was 2.83 µM, the TGI [13] was 28.7 µM and the TGI [2] was 28.1 µM. It also gave a TGI [3] of 33.4 µM, a TGI [6] of 34.2 µM and a TGI [7] of 39.5 µM. It also gave a TGI [8] of 13.1 µM, a TGI [9] of 56.7 µM and a TGI [10] of 24.9 µM. The TGI [11] was 24.2 µM and the TGI [12] was 33.2 µM.

With `COc1ccc(Cn2c(C)nc3c2C(=O)c2ccccc2C3=O)cc1` the TGI [1] was 19.7 µM, the TGI [13] was 27.1 µM and the TGI [3] was > 75 µM. The TGI [4] was 22.2 µM, the TGI [5] was 30.1 µM and the TGI [6] was > 75 µM. For the same compound, the TGI [8] was 16.7 µM, the TGI [10] was 28.7 µM and the TGI [11] was > 75 µM. The TGI [12] was > 75 µM.

For `COc1c2c(c3c(c1C1OC(C)[C@@H](C)O1)CC(C)(C)O3)C(=O)c1ccccc1C2=O` (stereo partly specified), the TGI [1] was 69.7 µM, the TGI [13] was > 100 µM and the TGI [2] was > 100 µM. The TGI [3] was > 100 µM, the TGI [4] was 31.6 µM and the TGI [5] was > 100 µM. The TGI [14] was 33.4 µM, the TGI [6] was > 100 µM and the TGI [8] was > 100 µM. For the same compound, the TGI [9] was 52.2 µM, the TGI [10] was > 100 µM and the TGI [11] was > 100 µM. For the same compound, the TGI [12] was > 100 µM.

`CCN(CC)CCNC(=O)c1ccccc1NC(=O)C(=O)Nc1ccccc1C(=O)NCCN(CC)CC` was tested, and the TGI [1] was > 100 µM, the TGI [2] was 79.7 µM and the TGI [3] was > 100 µM. For the same compound, the TGI [4] was 32.4 µM, the TGI [5] was 42.1 µM and the TGI [14] was > 100 µM. The TGI [6] was > 100 µM, the TGI [7] was > 100 µM and the TGI [8] was 57.5 µM. For the same compound, the TGI [9] was > 100 µM, the TGI [11] was > 100 µM and the TGI [12] was > 100 µM.

For `CC(=O)OCC1OC(Nc2[nH]c(=O)n(C)c(=O)c2-c2csc(N)n2)C(OC(C)=O)C(OC(C)=O)C1OC(C)=O` (stereo unspecified), the TGI [2] was > 100 µM, the TGI [3] was > 100 µM and the TGI [4] was > 100 µM. For the same compound, the TGI [5] was > 100 µM, the TGI [14] was > 100 µM and the TGI [6] was > 100 µM. For the same compound, the TGI [7] was > 100 µM, the TGI [8] was > 100 µM and the TGI [9] was > 100 µM. For the same compound, the TGI [10] was > 100 µM, the TGI [11] was > 100 µM and the TGI [12] was > 100 µM.

In the case of `C1=C(c2ccccc2)CN(c2ccccc2)OC1`, the TGI [1] was > 100 µM, the TGI [13] was > 100 µM and the TGI [3] was > 100 µM. For the same compound, the TGI [4] was > 100 µM, the TGI [5] was > 100 µM and the TGI [6] was > 100 µM. For the same compound, the TGI [7] was 69.3 µM, the TGI [8] was > 100 µM and the TGI [9] was > 100 µM. The TGI [10] was > 100 µM, the TGI [11] was > 100 µM and the TGI [12] was > 100 µM.

`COc1ccc(/C=C2\CN(C)Cc3c2nc(N)nc3-c2ccc(OC)cc2)cc1` was tested, and the TGI [1] was > 100 µM, the TGI [13] was > 100 µM and the TGI [2] was > 100 µM. For the same compound, the TGI [3] was > 100 µM, the TGI [4] was 85.2 µM and the TGI [5] was > 100 µM. The TGI [6] was > 100 µM, the TGI [8] was > 100 µM and the TGI [9] was > 100 µM. The TGI [10] was > 100 µM, the TGI [11] was > 100 µM and the TGI [12] was > 100 µM.

From PubChem BioAssay (NCI)
